This is an account of results in ChEMBL document CHEMBL1123125, “Sulfur-interrupted 8-amino side chain analogues of 4-methyl-5-[m-(trifluoromethyl)phenoxy]primaquine as potential antimalarial agents” (1985).

Holding throughout (format): functional
In assay [1] the test system is Mus musculus. Kind of assay: Evaluated for number of cures against Plasmodium berghei yoelii in rodents at peroral dose 10 mg/kg; 0/5. The following applies: route oral.
Assay [2] concerns Plasmodium cynomolgi. Kind of assay: Number of relapses in Plasmodium cynomolgi infected Rhesus monkeys (Macaca mulatta) at 1.0 mg/kg dose.
Assay [3] concerns Mus musculus. Kind of assay: Evaluated for the change in mean survival time over controls against Plasmodium berghei in mice (Mus musculus) at dose 80 mg/kg.
For assay [4], the system named is Mus musculus. Description: Evaluated for number of cures against Plasmodium berghei yoelii in mice (Mus musculus) at subcutaneous dose 40 mg/kg; 1/15.
Assay [5] deals with Plasmodium cynomolgi. Kind of assay: Relapses in Plasmodium cynomolgi infected Rhesus monkeys (Macaca mulatta) at 0.1 mg/kg dose.
Assay [6] relates to Mus musculus. Kind of assay: Evaluated for the change in mean survival time over controls against Plasmodium berghei in mice (Mus musculus) at dose 640 mg/kg.
In assay [7] the test system is Mus musculus. Kind of assay: Evaluated for number of toxic deaths against Plasmodium berghei yoelii in mice (Mus musculus) at subcutaneous dose of 40 mg/kg.
The subject of assay [8] is Mus musculus. Description: Evaluated for number of toxic deaths against Plasmodium berghei yoelii in rodents at subcutaneous dose of 160 mg/kg.
Assay [9] concerns Plasmodium cynomolgi. Description: Cures in Plasmodium cynomolgi infected Rhesus monkeys (Macaca mulatta) at 0.1 mg/kg dose; Cured 0 of 2.
The test system of assay [10] is Mus musculus. Description: Evaluated for number of cures against Plasmodium berghei yoelii in mice (Mus musculus) at peroral dose 160 mg/kg; Number of tested 5. The conditions noted are these: route oral.
The test system of assay [11] is Mus musculus. Description: Evaluated for the change in mean survival time over controls against Plasmodium berghei in mice (Mus musculus) at dose 320 mg/kg.
Assay [12] deals with Plasmodium cynomolgi. Kind of assay: Cures against Plasmodium cynomolgi infected Rhesus monkeys (Macaca mulatta) at 1.0 mg/kg; cured 0 of 2.
The test system of assay [13] is Mus musculus. Description: Evaluated for number of cures against Plasmodium berghei yoelii in rodents at subcutaneous dose 160 mg/kg; 5/15.
For assay [14], the system named is Mus musculus. Description: Evaluated for the change in mean survival time over controls against Plasmodium berghei in mice (Mus musculus) at dose 40 mg/kg.
Assay [15] relates to Mus musculus. Description: Evaluated for number of cures against Plasmodium berghei yoelii in mice (Mus musculus) at peroral dose 40 mg/kg; 0/5. The conditions noted are these: route oral.
In assay [16] the test system is Mus musculus. Description: Evaluated for the change in mean survival time over controls against Plasmodium berghei in mice (Mus musculus) at dose 160 mg/kg.
Assay [17] has as its system Mus musculus. Description: Evaluated for number of cures against Plasmodium berghei yoelii in mice (Mus musculus) at subcutaneous dose 10 mg/kg; 0/15.
The subject of assay [18] is Mus musculus. Description: Evaluated for number of cures against Plasmodium berghei in mice (Mus musculus) (surviving 60 days) at dose 320 mg/kg.
The subject of assay [19] is Mus musculus. Description: Evaluated for number of toxic deaths occurring on day 2-5 after infection with Plasmodium berghei in mice (Mus musculus) at dose 160 mg/kg.
Assay [20] concerns Mus musculus. Description: Evaluated for number of toxic deaths occurring on day 2-5 after infection with Plasmodium berghei in mice (Mus musculus) at dose 320 mg/kg.
The subject of assay [21] is Plasmodium cynomolgi. Kind of assay: Cures against Plasmodium cynomolgi infected Rhesus monkeys (Macaca mulatta) at 0.316 mg/kg dose; cured 0 of 2.
In assay [22] the test system is Mus musculus. Description: Evaluated for number of toxic deaths occurring on day 2-5 after infection with Plasmodium berghei in mice (Mus musculus) at dose 640 mg/kg.
Assay [23] concerns Plasmodium cynomolgi. Description: Cures in Plasmodium cynomolgi infected Rhesus monkeys (Macaca mulatta) at 1.0 mg/kg dose; Cured 1 of 2.
Assay [24] deals with Mus musculus. Description: Evaluated for number of cures against Plasmodium berghei yoelii in rodents at peroral dose 40 mg/kg; 7/20. The following applies: route oral.
Assay [25] relates to Mus musculus. Description: Evaluated for number of cures against Plasmodium berghei yoelii in rodents at subcutaneous dose 160 mg/kg; 8/30.
Assay [26] has as its system Plasmodium cynomolgi. Kind of assay: Number of relapses in Plasmodium cynomolgi infected Rhesus monkeys (Macaca mulatta) at 0.316 mg/kg dose.
Assay [27] has as its system Mus musculus. Description: Evaluated for number of cures against Plasmodium berghei yoelii in rodents at peroral dose 2.5 mg/kg; 0/5. The conditions noted are these: route oral.
Assay [28] deals with Mus musculus. Description: Evaluated for number of cures against Plasmodium berghei in mice (Mus musculus) (surviving 60 days) at dose 640 mg/kg.
Assay [29] deals with Mus musculus. Description: Evaluated for number of cures against Plasmodium berghei yoelii in rodents at peroral dose 10 mg/kg; 2/20. The following applies: route oral.
Assay [30] deals with Mus musculus. Description: Evaluated for number of cures against Plasmodium berghei yoelii in rodents at subcutaneous dose 2.5 mg/kg; 0/5.
For assay [31], the system named is Mus musculus. Kind of assay: Evaluated for number of cures against Plasmodium berghei yoelii in mice (Mus musculus) at peroral dose 160 mg/kg; 19/20. The conditions noted are these: route oral.
For assay [32], the system named is Mus musculus. Description: Evaluated for the change in mean survival time over controls against Plasmodium berghei in mice (Mus musculus) at dose 20 mg/kg.
The test system of assay [33] is Mus musculus. Kind of assay: Evaluated for number of cures against Plasmodium berghei yoelii in rodents at subcutaneous dose 40 mg/kg; 7/30.
Assay [34] has as its system Mus musculus. Kind of assay: Evaluated for number of cures against Plasmodium berghei yoelii in rodents at subcutaneous dose 10 mg/kg; 5/30.
The subject of assay [35] is Mus musculus. Description: Evaluated for number of cures against Plasmodium berghei in mice (Mus musculus) (surviving 60 days) at dose 10 mg/kg.
Assay [36] deals with Mus musculus. Kind of assay: Evaluated for number of cures against Plasmodium berghei in mice (Mus musculus) (surviving 60 days) at dose 80 mg/kg.
Assay [37] deals with Mus musculus. Kind of assay: Evaluated for number of cures against Plasmodium berghei in mice (Mus musculus) (surviving 60 days) at dose 40 mg/kg.
The test system of assay [38] is Mus musculus. Description: Evaluated for number of cures against Plasmodium berghei in mice (Mus musculus) (surviving 60 days) at dose 5 mg/kg.
In assay [39] the test system is Mus musculus. Kind of assay: Evaluated for number of cures against Plasmodium berghei in mice (Mus musculus) (surviving 60 days) at dose 20 mg/kg.
For assay [40], the system named is Mus musculus. Kind of assay: Evaluated for number of cures against Plasmodium berghei in mice (Mus musculus) (surviving 60 days) at dose 160 mg/kg.
In assay [41] the test system is Plasmodium cynomolgi. Kind of assay: Cures in Plasmodium cynomolgi infected Rhesus monkeys (Macaca mulatta) at 1.0 mg/kg dose; Cures 2 of 2.
For assay [42], the system named is Plasmodium cynomolgi. Kind of assay: Cures in Plasmodium cynomolgi infected Rhesus monkeys (Macaca mulatta) at 0.316 mg/kg dose; Cured 2 of 2.
The test system of assay [43] is Plasmodium cynomolgi. Kind of assay: Cures in Plasmodium cynomolgi infected Rhesus monkeys (Macaca mulatta) at 0.1 mg/kg dose; Cured 0 of 1.

Consider `COc1cc(NCC(C)SCCN)c2nccc(C)c2c1Oc1cccc(C(F)(F)F)c1` (configuration not stated), for which the No. of cures in the assay on Mus musculus [1] stood at 0; in the assay with Mus musculus [4] it was 1; with Plasmodium cynomolgi [9] it was 0; with Mus musculus [10], 0; in the assay with Plasmodium cynomolgi [12] it was 0; in the assay on Mus musculus [13] it was 5. The No. of cures is 0 with Mus musculus [15], 0 in the assay on Mus musculus [17] and 1 in the assay with Mus musculus [18]. In addition, the No. of relapses with Plasmodium cynomolgi [2] and in the assay on Plasmodium cynomolgi [5] was 7 in each case. For the same molecule, the “Change in MST” value turned out to be 1.5 in the assay with Mus musculus [3]; 9.7 in the assay with Mus musculus [6]; 6.5 in the assay with Mus musculus [11]; 0.5 with Mus musculus [14]; 4.5 with Mus musculus [16]. The No. of deaths with Mus musculus [7] and with Mus musculus [8] was 1 throughout.

As for `COc1cc(NC(C)CCCN)c2ncccc2c1` (configuration not stated) [PRIMAQUINE], the No. of deaths in the assay with Mus musculus [19] worked out at 2; in the assay with Mus musculus [20] it was 5; in the assay on Mus musculus [22] it was 5. For the same molecule, the “Change in MST” value with Mus musculus [3] was found to be 9. Further, the No. of cures with Plasmodium cynomolgi [9] came to 0; in the assay with Plasmodium cynomolgi [21] it was 0; in the assay on Plasmodium cynomolgi [23] it was 1.

For the molecule `COc1cc(NC(C)CSCCN)c2nccc(C)c2c1Oc1cccc(C(F)(F)F)c1` (configuration not stated), the No. of cures turned out to be 7 in the assay with Mus musculus [24]; 8 with Mus musculus [25]; 0 with Mus musculus [27]; 2 in the assay on Mus musculus [28]; 2 in the assay on Mus musculus [29]; 0 with Mus musculus [30]. Moreover, the No. of cures came to 19 in the assay with Mus musculus [31]; 0 in the assay on Plasmodium cynomolgi [9]; 7 with Mus musculus [33]; 5 in the assay on Mus musculus [34]; 0 in the assay with Plasmodium cynomolgi [21]; 1 in the assay with Plasmodium cynomolgi [23]. The No. of cures in the assay with Mus musculus [18] came to 1. The No. of relapses was found to be 18 with Plasmodium cynomolgi [2], 28 in the assay on Plasmodium cynomolgi [26] and 8 in the assay with Plasmodium cynomolgi [5]. Moreover, the “Change in MST” value is 6.6 in the assay with Mus musculus [3]; 12.3 in the assay with Mus musculus [6]; 3 in the assay on Mus musculus [32]; 9.6 with Mus musculus [11]; 2 in the assay on Mus musculus [14]; 6.8 with Mus musculus [16]. The No. of deaths came out at 2 in the assay with Mus musculus [7], 3 with Mus musculus [8] and 1 in the assay with Mus musculus [22].

Regarding `COc1cc(NC(C)CCCN)c2nccc(C)c2c1Oc1cccc(C(F)(F)F)c1` (configuration not stated), the No. of cures with Mus musculus [35] was 3; in the assay with Mus musculus [36], 5; in the assay with Mus musculus [37], 5; with Mus musculus [38], 1; in the assay on Mus musculus [39], 5; in the assay on Mus musculus [40], 5. For the same molecule, the No. of cures is listed as 1 in the assay with Mus musculus [28]; 2 in the assay with Plasmodium cynomolgi [41]; 2 with Plasmodium cynomolgi [42]; 5 in the assay on Mus musculus [18]; 0 with Plasmodium cynomolgi [43]. For the same molecule, the No. of deaths with Mus musculus [22] amounted to 4.
